US7803792B2, “Quaternary ammonium compounds” (Asahi Kasei Pharma Corporation, priority 2002, dated 2010)

Columns and labels:
Caco 2 cells = test: Toxicity with respect to alimentary canal: cytotoxicity to Caco 2, LDH activity (Test Example 12); format: cell-based, human; conditions: LDH activity after 2 hours; for Toxicity (%) to Caco 2: relative to cytolytic agent = 100%
Method: Toxicity With Respect to Alimentary Canal
To evaluate the toxicity of the compounds of the present invention to the alimentary canal, the cytotoxicity to Caco 2, which is a human originated small intestine epithelial cell line, was tested by referring to the method of Bestwick C S et al. [Biochimica et Biophysica Acta 1474: 47-55, 1999].
That is, Caco 2 cells (purchased from ATCC) were inoculated on a 96-well plate such that there were 10,000 cells/well [MEM-E medium, 10% FBS (Fetal Bovine Serum), 1% NEAA (Non Essential Amino Acid) solution, (both manufactured by GIBCO PHARMACEUTICAL COMPANY)]. After culturing for 48 hours, the test compounds were diluted with the culture medium and added to the respective wells. After 2 hours, 50 μl of the culture broth was collected and the LDH activity in the collected culture broth was measured by using an LDH activity measuring kit (CytoTox 96 Non-Radioactive Cytotoxicity Assay, manufactured by PROMEGA CORPORATION). Relative activities were calculated assuming the LDH activity as 100% when the Caco 2 cells were treated with the cytolytic agent and the obtained relative activities were taken as cytotoxicities to Caco 2 cell.

[1] = tested on: bile duct partial ligation model; test: Cholestasis-caused hepatopathy model, bile duct partial ligation, IBAT inhibiting compounds, blood after 24 hours (Test Example 13); format: in vivo, rat; conditions: Table 17; 10 mg/kg oral; blood 24 hours after administration; N = 3, average ± standard error
Method: “Cholestasis-Caused Hepatopathy” Model (Bile Duct Partial Ligation Model)
In this test example, the model of cholestasis-caused hepatopathy was tested according to the method described in Test Example 5.
That is, the abdomens of 8 to 10 weeks old SD (IGS) male rats were cut open under anesthesia with pentobarbital and partial ligation surgery of the bile duct was carried out. After the surgery, 200 mg/kg of bile acid and an IBAT inhibiting compound were forcibly orally administered to the rats (each n=3). As a control group, physiological saline […] was administered (n=3). To observe the effect of the partial ligation surgery, a sham group (the abdomen was cut open under anesthesia with pentobarbital but partial ligation surgery of the bile duct was not carried out) and an untreated group were established (each n=3). After 24 hours from the administration a blood sample was taken from the abdominal aorta and AST, ALT, and ALP in the blood were measured using the method described in Test Example 5.

[2] = tested on: Cholic acid-loaded rat model; test: Bile acid-decreasing effect in portal vein of rats loaded with cholic acid (Test Example 2); format: in vivo; conditions: portal vein blood after 2 hours
Method: Bile Acid-Decreasing Effect in Portal Vein of Rats Loaded With Cholic Acid
In this test example, the test for confirming the bile acid-decreasing effect in portal vein of cholic acid-loaded rats was carried out according to the method described in Pharmacology and Therapeutics [Jpn Pharmacol. Ther., Vol. 24 Supplement, 1996, 103 (S-577)-110 (S-584)].
That is, 7 to 9 weeks old SD (IGS) rats were starved on the day before the test and thereafter. […] After 2 hours from the administration, a sample of blood was taken from a portal vein and total serum bile acid level was measured to study the effect of the test compound (n=6). Further, as a control group, a group (n=6) loaded with cholic acid (200 mg/kg) only was prepared and the same test procedure was followed. A commercially available kit (trade name: SOTANJUSAN-TEST WAKO-(SOTANJUSAN=total bile acid), manufactured by WAKO PURE CHEMICAL […], LTD.) was used for the measurement of bile acid. Assuming the value of the control group, which is a group in which no test compound was used, as 100%, the rate of decrease (percentage (%) of decrease) of the bile acid level when a fixed amount of the test compound was used was determined.

human IBAT = biological target: T1, human IBAT (Homo sapiens, UniProt Q12908); test: In vitro assay of temporarily expressed human IBAT transporter using Cos 7 cells (Test Example 8); format: cell-based; conditions: Cos 7 cells temporarily expressing human IBAT; [3H] taurocholate 8 μM, 37° C., 60 minutes
T1 construct: expressed in transfected cells; host or cells: Cos 7
T1 sequence (Q12908 1-348): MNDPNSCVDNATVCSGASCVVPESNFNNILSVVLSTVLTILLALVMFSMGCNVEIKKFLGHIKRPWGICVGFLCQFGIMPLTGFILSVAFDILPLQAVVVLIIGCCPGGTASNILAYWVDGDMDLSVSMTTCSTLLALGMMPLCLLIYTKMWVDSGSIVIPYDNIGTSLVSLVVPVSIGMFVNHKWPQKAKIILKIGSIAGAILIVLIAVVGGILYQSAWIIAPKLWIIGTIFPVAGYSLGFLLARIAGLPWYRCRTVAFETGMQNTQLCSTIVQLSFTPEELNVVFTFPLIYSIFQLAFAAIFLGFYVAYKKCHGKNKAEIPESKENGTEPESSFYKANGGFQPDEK
Method: In Vitro Assay of Compounds Which Inhibit Temporarily Expressed Human IBAT Transporter or Rat IBAT Transporter Using Cos 7 Cells
In this test example, the in vitro assay of the compounds which inhibit temporarily expressed human IBAT transporter or rat IBAT transporter using Cos cells was carried out according to the method described in Am. J. Physiol., 274, G157-169.
That is, […] Cos 7 were inoculated on a 24-well cell plate. One day later, 0.3 μg per well of cDNA of a human IBAT or a rat IBAT was transfected by using FuGENE6 (manufactured by ROCHE PHARMACEUTICAL CO., LTD.). For the assay, the cells cultured for one day after the transfection were used and the following procedure was followed. The cells were washed once with an assay buffer, Hank's buffer solution containing 25 mM glucose and with 10 mM HEPES (pH 7.4), and then the assay buffer was replaced by an assay buffer to which the test compound was added. After adding [^3H] taurocholate to a final concentration of 8 μM, the cells were incubated at 37° C. for 60 minutes. [^3H] taurocholate was allowed to be incorporated in Cos 7 cells through human IBAT or rat IBAT. The reaction was stopped by washing twice with a buffer prepared by adding 1 mM taurocholate to the assay buffer and lyzing the cells with 0.2M NaOH. Measurement of radioactivity was carried out by introducing the cell lyzate in 4 ml of liquid scintillation cocktail, stirring the mixture well, and then measuring the radioactivity by a scintillation counter.

[3] = 0.1 mg/kg oral with cholic acid 200 mg/kg, Tween 20 0.05%
[4] = 0.1 mg/kg oral with cholic acid 200 mg/kg, HCO-60 0.1%
[5] = 0.3 mg/kg oral with cholic acid 200 mg/kg, HCO-60 0.1%

Compound	IC50 (human IBAT) [nM]	Rate of decrease (%) of bile acid [2, 4] [%]	Toxicity (%) to Caco 2 (Caco 2 cells; 3 μM) [%]	Toxicity (%) to Caco 2 (Caco 2 cells; 10 μM) [%]	Toxicity (%) to Caco 2 (Caco 2 cells; 30 μM) [%]	further results
CCCCC1(CCCC)CS(=O)(=O)c2ccc(N(C)C)cc2C(c2ccc(OCc3ccc(C[N+]45CCN(CC4)CC5)cc3)cc2)N1.[Cl-] (stereo not drawn) [Comparative Example 2, 1-{4-[4-(3,3-Dibutyl-7-dimethylamino-1,1-dioxo-2,3,4,5-tetrahydro-1,4-benzothiazepin-5-yl)phenoxymethyl]benzyl}-4-aza-1-azoniabicyclo[2.2.2]octane chloride]						cytotoxicity to Caco 2 cells (Caco 2 cells; in words): showed cytotoxicity to small intestine epithelial cell line at low concentrations; ALP [1]: 1266 ± 160 IU/L; ALT [1]: 281 ± 103 IU/L; AST [1]: 547 ± 159 IU/L
CCCCC1(CCCC)CS(=O)(=O)c2ccc(N(C)C)cc2C(c2cccc(NC(=S)NCCCC[N+](C)(C)Cc3ccccc3)c2)N1.[Br-] (stereo not drawn) [Example 801]		33				
CCCCC1(CCCC)CS(=O)(=O)c2ccc(N(C)C)cc2C(c2cccc(NC(=S)Nc3ccc(C[N+]4(Cc5ccccc5)CCC(CO)CC4)cc3)c2)N1.[Br-] (stereo not drawn) [Example 3607]	41	36	<1	<1	<1	
CCCCC1(CCCC)CS(=O)(=O)c2ccc(N(C)C)cc2C(c2cccc(NC(=S)Nc3ccc(C[N+]4(Cc5ccccc5)CCC(CCO)CC4)cc3)c2)N1.[Br-] (stereo not drawn) [Example 3608]	59	43	<1	<1	<1	
CCCCC1(CCCC)CS(=O)(=O)c2ccc(N(C)C)cc2C(c2cccc(NC(=S)Nc3ccc(C[n+]4ccc(C#N)cc4)cc3)c2)N1.[Br-] (stereo not drawn) [Example 3753]						Rate of decrease (%) of bile acid [2, 5]: 8.5%
CCCCC1(CCCC)CS(=O)(=O)c2ccc(N(C)C)cc2C(c2cccc(NC(=S)Nc3ccc(C[n+]4cccc(CC#N)c4)cc3)c2)N1.[Br-] (stereo not drawn) [Example 3759]			<1	<1	<1	Rate of decrease (%) of bile acid [2, 5]: 36%
CCCCC1(CCCC)CS(=O)(=O)c2ccc(N(C)C)cc2C(c2cccc(NC(=S)Nc3cccc(C[N+](C)(C)Cc4ccccc4)c3)c2)N1.[Br-] (stereo not drawn) [Example 4257]		30				
CCCCC1(CCCC)CS(=O)(=O)c2ccc(N(C)C)cc2C(c2cccc(NC(=S)Nc3cccc(C[N+]4(Cc5ccccc5)CCC(CO)CC4)c3)c2)N1 (stereo not drawn) [Example 4424]	91	17				
CCCCC1(CCCC)CS(=O)(=O)c2ccc(N(C)C)cc2C(c2cccc(NC(=S)Nc3cccc(C[N+]4(Cc5ccccc5)CCC(CCO)CC4)c3)c2)N1 (stereo not drawn) [Example 4425]	89	22				
CCCCC1(CCCC)CS(=O)(=O)c2ccc(N(C)C)cc2C(c2cccc(NC(=S)Nc3cccc(C[N+]45CCC(CC4)CC5)c3)c2)N1 (stereo not drawn) [Example 4512]	63	37				
CCCCC1(CCCC)CS(=O)(=O)c2ccc(N(C)C)cc2C(c2cccc(NC(=S)Nc3ccccc3C[N+]34CCC(CC3)CC4)c2)N1.[Br-] (stereo not drawn) [Example 4905]		28				
CCCCC1(CCCC)CS(=O)(=O)c2ccc(N(C)C)cc2C(c2cccc(NC(=S)Nc3ccc(CC[N+]45CCC(CC4)CC5)cc3)c2)N1 (stereo not drawn) [Example 5298]	76		<1	<1	<1	Rate of decrease (%) of bile acid [2, 5]: 40%
CCCCC1(CCCC)CS(=O)(=O)c2ccc(N(C)C)cc2C(c2ccc(NC(=S)Nc3ccc(C[N+](C)(C)Cc4ccccc4)cc3)cc2)N1.[Br-] (stereo not drawn) [Example 5405, Benzyl-(4-{3-[4-(3,3-dibutyl-7-dimethylamino-1,1-dioxo-2,3,4,5-tetrahydro-1,4-benzothiazepin-5-yl)phenyl]thioureido}-benzyl)dimethylammonium bromide]		16				

More lines, main results first:

IC50 (human IBAT) [nM]	Compound	Rate of decrease (%) of bile acid [2, 4] [%]	Toxicity (%) to Caco 2 (Caco 2 cells; 3 μM) [%]	Toxicity (%) to Caco 2 (Caco 2 cells; 10 μM) [%]	Toxicity (%) to Caco 2 (Caco 2 cells; 30 μM) [%]	further results
170	CCCCC1(CCCC)CS(=O)(=O)c2ccc(N(C)C)cc2C(c2cccc(NC(=S)NCCC[N+](C)(C)Cc3ccccc3)c2)N1.[Br-] (stereo not drawn) [Example 425]					Rate of decrease (%) of bile acid [2, 3]: 21%
93	CCCCC1(CCCC)CS(=O)(=O)c2ccc(N(C)C)cc2C(c2cccc(NC(=S)NCCCCC[N+](C)(C)Cc3ccccc3)c2)N1.[Br-] (stereo not drawn) [Example 1178]	18				
45	CCCCC1(CCCC)CS(=O)(=O)c2ccc(N(C)C)cc2C(c2cccc(NC(=S)Nc3ccc(C[N+](C)(C)CCCC)cc3)c2)N1.[Br-] (stereo not drawn) [Example 3409]	28	<1	<1	<1	
52	CCCCC1(CCCC)CS(=O)(=O)c2ccc(N(C)C)cc2C(c2cccc(NC(=S)Nc3ccc(C[n+]4ccc(CC)cc4)cc3)c2)N1.[Br-] (stereo not drawn) [Example 3710]	20	<1	<1	<1	
48	CCCCC1(CCCC)CS(=O)(=O)c2ccc(N(C)C)cc2C(c2cccc(NC(=S)Nc3ccc(C[n+]4ccc5ccccc5c4)cc3)c2)N1.[Br-] (stereo not drawn) [Example 3783]	16	<1	<1	<1	
43	CCCCC1(CCCC)CS(=O)(=O)c2ccc(N(C)C)cc2C(c2cccc(NC(=S)CCCCC[N+](C)(C)Cc3ccccc3)c2)N1 (stereo not drawn) [Example 3835]		<1	<1	<1	Rate of decrease (%) of bile acid [2, 3]: 23%
62	CCCCC1(CCCC)CS(=O)(=O)c2ccc(N(C)C)cc2C(c2cccc(NC(=S)Nc3ccc(CC[N+](C)(C)Cc4ccccc4)cc3)c2)N1 (stereo not drawn) [Example 5043]		<1	<1	<1	Rate of decrease (%) of bile acid [2, 5]: 39%
